# Reference: article PMC9551036, “A selective and orally bioavailable VHL-recruiting PROTAC achieves SMARCA2 degradation in vivo” (Nature Communications, 2022)
# “And” between values parts separate entries of the source, which are not always exact repeats. Equal values may be shown once. Read-outs that look alike come from different tables or passages of the source.
# Molecular target: SMARCA2 (Homo sapiens, UniProt P51531)
# Assay: SMARCA2 capillary electrophoresis protein assay in other cell lines (A549, NCI-H1568, HCT116, LU99, HCC-364, HCT-15, HCC4006, SK-N-AS)
# Format: cell-based
# Parameters: endogenous in cells; host or cells: RKO, NCI-H1568, A549, HCT116, LU99, HCC-364, HCT-15, HCC4006, SK-N-AS
# Conditions: for LogEC50: log10 of concentration in mol/l
# Experimental: 130,000–200,000 cells were seeded in 24-well plates and incubated until settled down or overnight. Compounds were dissolved in DMSO and added to cells in indicated concentrations using a digital dispenser following an optional media change. Cells were incubated for 4 or 18 h as indicated. For SMARCA2/4 half-life determination, 150,000 or 200,000 cells were seeded in 24-well plates. The next day, 50 µg/ml cycloheximide (Sigma) was added and cells were incubated for 1–24 h. For SMARCA2/4 re-synthesis measurements, 200,000 cells were seeded in 24-well plates. The next day, 100 nM compound 6 was added for 4 h to degrade SMARCA2/4, and a sample was taken as baseline for normalisation. To allow re-synthesis, a VHL binder (compound 32, 25 or 50 µM) was then added for 3 or 24 h. Medium was removed, cells were washed with PBS and lysed with 80 µl Lysis Buffer (MSD Tris Lysis Buffer (#R60TX-2) + Halt Inhibitor Cocktail (100x) + Benzonase 0.5 µL/ml). Samples were frozen at −80 °C and thawed at room temperature before use. Samples were transferred to a V-bottom plate and insoluble debris was pelleted by centrifugation for 5 min at maximum speed. The supernatant was transferred to a fresh plate. Master Mix and Ladder were prepared according to manufacturer’s instructions for 12–230 kDa Wes Separation Module, 8 × 25 capillary cartridges, Protein Simple #SM-W004 with Anti-Rabbit Detection Module for Wes, Peggy Sue or Sally Sue, Protein Simple #DM-001. 4.8 µl lysate were mixed with 1.2 µl Master Mix to achieve a protein concentration of ~0.5 µg/µl. Antibodies were diluted in Antibody Diluent II (SMARCA2 Sigma #HPA029981 RRID:AB_10602406 1:25–100, SMARCA4 Cell Signalling #49360 clone D1Q7F RRID:AB_2728743 1:15–120 or Abcam #ab110641 clone EPNCIR111A RRID:AB_10861578 1:60, GAPDH Abcam #ab9485 RRID:AB_307275 1:250). Wes plates were prepared and run according to manufacturer’s instructions. Proteins were quantified with accompanying Compass Software. SMARCA2/4 protein levels were normalised to GAPDH. […] Where applicable, curves were fitted using a 4-parametric logistic model.
# [1] = HCC4006_SM2, four-parameter fit
# [2] = HCC-364_SM2, four-parameter fit
# SMARCA2, sequence (P51531 whole entry): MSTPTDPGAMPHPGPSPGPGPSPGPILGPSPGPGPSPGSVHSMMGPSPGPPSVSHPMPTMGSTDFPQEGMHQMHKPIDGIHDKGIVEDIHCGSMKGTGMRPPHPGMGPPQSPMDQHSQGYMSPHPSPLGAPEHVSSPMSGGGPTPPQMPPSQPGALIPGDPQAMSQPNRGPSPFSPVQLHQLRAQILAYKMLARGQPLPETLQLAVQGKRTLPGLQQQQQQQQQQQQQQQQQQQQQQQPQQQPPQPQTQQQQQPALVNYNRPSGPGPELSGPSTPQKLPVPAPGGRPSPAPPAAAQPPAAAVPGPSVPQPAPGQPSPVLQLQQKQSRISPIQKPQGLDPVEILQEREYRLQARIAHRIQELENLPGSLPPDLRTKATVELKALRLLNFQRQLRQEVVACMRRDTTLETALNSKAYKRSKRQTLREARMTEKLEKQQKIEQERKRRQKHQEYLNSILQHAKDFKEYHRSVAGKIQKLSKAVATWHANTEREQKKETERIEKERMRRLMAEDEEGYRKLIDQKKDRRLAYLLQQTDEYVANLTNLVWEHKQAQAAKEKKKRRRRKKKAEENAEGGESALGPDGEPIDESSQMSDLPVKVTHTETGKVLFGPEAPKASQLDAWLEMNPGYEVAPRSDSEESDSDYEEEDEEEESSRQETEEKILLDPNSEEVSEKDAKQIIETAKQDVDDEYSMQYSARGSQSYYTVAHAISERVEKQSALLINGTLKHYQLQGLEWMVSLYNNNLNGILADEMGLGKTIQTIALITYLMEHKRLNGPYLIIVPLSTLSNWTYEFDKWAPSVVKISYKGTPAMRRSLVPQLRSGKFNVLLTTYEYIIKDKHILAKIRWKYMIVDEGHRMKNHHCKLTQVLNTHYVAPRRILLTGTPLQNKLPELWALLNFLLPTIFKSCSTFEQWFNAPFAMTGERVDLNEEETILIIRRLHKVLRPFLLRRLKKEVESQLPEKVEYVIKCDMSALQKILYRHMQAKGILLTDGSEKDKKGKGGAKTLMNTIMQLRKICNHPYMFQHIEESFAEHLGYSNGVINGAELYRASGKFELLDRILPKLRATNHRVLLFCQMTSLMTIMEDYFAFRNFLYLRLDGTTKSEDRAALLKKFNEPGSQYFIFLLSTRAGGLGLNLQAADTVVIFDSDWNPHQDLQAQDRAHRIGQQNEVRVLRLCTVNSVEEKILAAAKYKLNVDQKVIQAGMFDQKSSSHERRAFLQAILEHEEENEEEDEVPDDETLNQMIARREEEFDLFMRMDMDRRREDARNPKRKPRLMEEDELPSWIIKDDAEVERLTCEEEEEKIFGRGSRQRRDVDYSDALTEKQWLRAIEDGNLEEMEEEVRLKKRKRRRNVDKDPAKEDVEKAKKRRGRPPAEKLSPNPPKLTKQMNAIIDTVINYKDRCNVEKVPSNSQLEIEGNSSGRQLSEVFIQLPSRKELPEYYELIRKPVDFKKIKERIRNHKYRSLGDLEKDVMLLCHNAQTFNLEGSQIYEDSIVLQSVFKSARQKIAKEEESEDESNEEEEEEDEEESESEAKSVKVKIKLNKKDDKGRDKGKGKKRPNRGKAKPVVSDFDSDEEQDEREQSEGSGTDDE
structure (smiles),measurement,setting,value
Cc1ncsc1-c1ccc(C(CCC(C)CCN2CCC(c3ccc4c(c3)n(C3CCCC3)c3nc(=O)c5c(Br)cccc5n43)CC2)NC(=O)C2CC(O)CN2C(=O)C(NC(=O)C2(F)CC2)C(C)(C)C)cc1 (stereo not drawn) [ACBI2],"Bottom (% protein remaining, four-parameter fit)","A549, 4h",4.929%
same,HillSlope (protein remaining),"A549, 4h",-1.225
same,LogEC50 (protein remaining),"A549, 4h",-8.097 log10(mol/l)
same,"Top (% protein remaining, four-parameter fit)","A549, 4h",100.9%
same,% protein remaining,"A549, 4h, conc 1.00001e-10 mol/l",84.5708% and 85.2048%
same,% protein remaining,"A549, 4h, conc 1.52416e-10 mol/l",108.644%
same,% protein remaining,"A549, 4h, conc 3.1623e-10 mol/l",89.402% and 93.1131%
same,% protein remaining,"A549, 4h, conc 4.57247e-10 mol/l",121.415%
same,% protein remaining,"A549, 4h, conc 1.00001e-9 mol/l",110.304% and 110.867%
same,% protein remaining,"A549, 4h, conc 1.37174e-9 mol/l",89.7364%
same,% protein remaining,"A549, 4h, conc 3.1623e-9 mol/l",63.5379% and 69.9208%
same,% protein remaining,"A549, 4h, conc 4.11523e-9 mol/l",69.7779%
same,% protein remaining,"A549, 4h, conc 1.00001e-8 mol/l",46.41% and 40.9559%
same,% protein remaining,"A549, 4h, conc 1.23457e-8 mol/l",53.3153%
same,% protein remaining,"A549, 4h, conc 3.1623e-8 mol/l",21.5929% and 21.3671%
same,% protein remaining,"A549, 4h, conc 3.7037e-8 mol/l",16.6414%
same,% protein remaining,"A549, 4h, conc 1.00001e-7 mol/l",9.055% and 9.573%
same,% protein remaining,"A549, 4h, conc 1.11111e-7 mol/l",6.719%
same,% protein remaining,"A549, 4h, conc 3.1623e-7 mol/l",3.884% and 5.2896%
same,% protein remaining,"A549, 4h, conc 3.33333e-7 mol/l",5.288%
same,% protein remaining,"A549, 4h, conc 1e-6 mol/l",9.764%
same,% protein remaining,"A549, 4h, conc 1.00001e-6 mol/l",2.893% and 6.667%
same,% protein remaining,"A549, 4h, conc 3.1623e-6 mol/l",2.881% and 4.488%
same,DC50,"A549, 4h, read-out: EC50 (protein remaining)",8 nM
same,"Bottom (% protein remaining, four-parameter fit)","A549, 8h",4.658%
same,HillSlope (protein remaining),"A549, 8h",-1.748
same,LogEC50 (protein remaining),"A549, 8h",-8.366 log10(mol/l)
same,"Top (% protein remaining, four-parameter fit)","A549, 8h",107%
same,% protein remaining,"A549, 8h, conc 1.52416e-10 mol/l",110.756% and 87.6939%
same,% protein remaining,"A549, 8h, conc 4.57247e-10 mol/l",98.1008% and 121.894%
same,% protein remaining,"A549, 8h, conc 1.37174e-9 mol/l",100.189% and 99.1847%
same,% protein remaining,"A549, 8h, conc 3.7037e-8 mol/l",13.1114% and 6.497%
same,% protein remaining,"A549, 8h, conc 1.11111e-7 mol/l",4.666% and 4.638%
same,% protein remaining,"A549, 8h, conc 3.33333e-7 mol/l",3.034% and 3.636%
same,% protein remaining,"A549, 8h, conc 1e-6 mol/l",2.595% and 3.383%
same,% protein remaining,"A549, 8h, conc 3e-6 mol/l",3.585% and 2.581%
same,DC50,"A549, 8h, read-out: EC50 (protein remaining)",4.31 nM
same,"Bottom (% protein remaining, four-parameter fit)","A549, 18h",5.224%
same,HillSlope (protein remaining),"A549, 18h",-3.553
same,LogEC50 (protein remaining),"A549, 18h",-8.518 log10(mol/l)
same,"Top (% protein remaining, four-parameter fit)","A549, 18h",104.8%
same,% protein remaining,"A549, 18h, conc 1.52416e-10 mol/l",87.6939%
same,% protein remaining,"A549, 18h, conc 4.57247e-10 mol/l",121.894%
same,% protein remaining,"A549, 18h, conc 1.37174e-9 mol/l",99.1847%
same,% protein remaining,"A549, 18h, conc 4.11523e-9 mol/l",30.1189%
same,% protein remaining,"A549, 18h, conc 1.23457e-8 mol/l",11.5462%
same,% protein remaining,"A549, 18h, conc 3.7037e-8 mol/l",6.497%
same,% protein remaining,"A549, 18h, conc 1.11111e-7 mol/l",4.638%
same,% protein remaining,"A549, 18h, conc 3.33333e-7 mol/l",3.636%
same,% protein remaining,"A549, 18h, conc 1e-6 mol/l",3.383%
same,% protein remaining,"A549, 18h, conc 3e-6 mol/l",2.581%
same,DC50,"A549, 18h, read-out: EC50 (protein remaining)",3.03 nM
same,SMARCA2 degradation in sensitive cell lines,A549 and NCI-H1568,rapid and complete degradation of SMARCA2
same,"Bottom (best-fit value, % protein remaining)",[1],15.27%
same,HillSlope,[1],-1.75
same,LogEC50,HCC4006_SM2,-7.779
same,DC50,"HCC4006_SM2, protein degradation, four-parameter fit, read-out: EC50 (the source's name)",16.6 nM
same,"Bottom (best-fit value, % protein remaining)",[2],10.4%
same,HillSlope,[2],-2.48
same,LogEC50,HCC-364_SM2,-8.138
same,DC50,"HCC-364_SM2, protein degradation, four-parameter fit, read-out: EC50 (the source's name)",7.28 nM
same,"Bottom (% protein remaining, four-parameter fit)","HCT116, SM2",21.77%
same,HillSlope (protein remaining),"HCT116, SM2",-1.136
same,"Top (% protein remaining, four-parameter fit)","HCT116, SM2",121.9%
same,"Bottom (best-fit value, % protein remaining)","HCT-15_SM2, four-parameter fit",-16.7%
same,HillSlope,"HCT-15_SM2, four-parameter fit",-0.6998
same,LogEC50,HCT-15_SM2,-6.787
same,DC50,"HCT-15_SM2, protein degradation, four-parameter fit, read-out: EC50 (the source's name)",163 nM
same,"Bottom (best-fit value, % protein remaining)","LU99_SM2, four-parameter fit",4.814%
same,HillSlope,"LU99_SM2, four-parameter fit",-1.159
same,LogEC50,LU99_SM2,-8.209
same,DC50,"LU99_SM2, protein degradation, four-parameter fit, read-out: EC50 (the source's name)",6.18 nM
